Test system: 186277-243-T-J2-PDC complex spheroid growth
Assay: Anticancer human tumor 186277-243-T-J2-PDC patient-derived colon adenocarcinoma cell line growth inhibition [AhR]
Conditions: for IC50: curve of first compound; for viability, T/C: stronger effect = lower value
Text: Multicellular complex tumor spheroid response to aryl hydrocarbon receptor antagonists in combination with a variety of drugs and investigational agents in selected tumor cell lines
The current study was undertaken to assess response to aryl hydrocarbon receptor antagonists in combination with standard-of-care drugs and investigational agents in solid tumor complex spheroid models. Complex spheroids include a stromal component modeled by human endothelial cells (HUVEC) and fibroblasts modeled by human mesenchymal stem cells (MSCs). The concentration ranges selected for each drug and investigational agent were based upon clinically achievable concentrations if the clinical Cmax of the agent was known.
Compounds. The drugs and investigational agents: BAY 2416964 (NSC825713), GNF351 (NSC835774), CH-223191 (NSC835775), CPI-455 (NSC825282), aza-TdCyd (NSC777586), decitabine (NSC127716), belinostat (NSC758774), entinostat (NSC756642), pevonedistat (NSC761192), tazemetostat (NSC777109), talazoparib (NSC765396), olaparib (NSC753686), selinexor (NSC780203), nedisertib (M3814, NSC802822), bortezomib (NSC756655), venetoclax (NSC766270), doxorubicin (NSC123127), elimusertib (BAY189344, NSC800525), ceralasertib (AZD6738, NSC777638), TAK-243 (NSC785004), alisertib (NSC759677), etoposide (NSC141540), topotecan (NSC609699), eribulin (NSC707389), gemcitabine (NSC613327), carboplatin (NSC241240), cisplatin (NSC119875), and SN-38 (NSC673596) were obtained from the National Cancer Institute (NCI) Developmental Therapeutics Program Chemical Repository (32). The FDA-approved anticancer drug set is available from the Developmental Therapeutics Program at https://dtp.cancer.gov/organization/dscb/obtaining/available plates.htm. […] The stock solutions were prepared in dimethyl sulfoxide (DMSO, Sigma-Aldrich, St. Louis, MO, cat. D2650), except for the platinum compounds which were prepared in saline (Quality Biological, Gaithersburg, MD, cat. 114-055-101), at 800-fold the tested concentration and stored at -70 degrees C prior to their use. All drugs and investigational agents were tested over a range starting from a high concentration at or near the clinical Cmax and decreasing in half-log increments. If the clinical Cmax for an agent had not been determined, the highest concentration tested was 10 microM (Table 1).
Cell Culture. All cells were maintained in an incubator at 37 degrees C and 5% CO2 with 95% humidity. The PDC lines were cultured according to standard operating procedures established by the NCI PDMR (https://pdmr.cancer.gov). Briefly, all PDCs were thawed and cultured in Matrigel-coated flasks prepared with a working solution of 1X Ham's F-12 nutrient mix, without supplementation (Invitrogen, Waltham, MA, cat. 11765054), 100 U/mL penicillin-streptomycin (Invitrogen, cat. 15140122), and 2.5% Matrigel (Corning Inc., Corning, NY, cat. 354248) for the first three passages. All PDCs were cultured in complete DMEM/F-12 media containing advanced DMEM/F-12 (Invitrogen, cat. 12634028), 4.9% defined fetal bovine serum, heat inactivated (HyClone Laboratories Inc., Logan, UT, cat. SH30070.03HI), 389 ng/mL hydrocortisone (Sigma-Aldrich, cat. H4001), 9.7 ng/mL human EGF recombinant protein (Invitrogen, cat. PHG0313), 23.4 microg/mL adenine (Sigma-Aldrich, cat. A2786), 97.3 U/mL penicillin-streptomycin (Invitrogen, cat. 15140122), 1.9 mM L-glutamine (Invitrogen, cat. 25030081), and 9.7 microM Y-27632 dihydrochloride (Tocris Bioscience, Bristol, United Kingdom, cat. 1254). The PDCs were cultured in complete DMEM/F12 media without 10 microM Y-27632 dihydrochloride for at least two passages prior to the screen. The established cell lines NCI-H1341 and […] were cultured in DMEM/F-12, HEPES (Invitrogen, cat. 11330032), 5% defined fetal bovine serum (HyClone Laboratories Inc., cat. SH30070.03), ITS premix universal culture supplement [insulin (5 microg/mL), transferrin (5 microg/mL), and selenious acid (5 ng/mL)] […]

[1] = second compound 0.1 µM, first compound 0.0316 µM
[2] = second compound 0.1 µM, first compound 0.1 µM
[3] = second compound 0.1 µM, first compound 0.316 µM
[4] = second compound 0.1 µM, first compound 1 µM
[5] = second compound 0.1 µM, first compound 3.16 µM
[6] = second compound 0.1 µM, first compound 10 µM
[7] = second compound 0.316 µM, first compound 0.0316 µM
[8] = second compound 0.316 µM, first compound 0.1 µM
[9] = second compound 0.316 µM, first compound 0.316 µM
[10] = second compound 0.316 µM, first compound 1 µM
[11] = second compound 0.316 µM, first compound 3.16 µM
[12] = second compound 0.316 µM, first compound 10 µM
[13] = second compound 1 µM, first compound 0.0316 µM
[14] = second compound 1 µM, first compound 0.1 µM
[15] = second compound 1 µM, first compound 0.316 µM
[16] = second compound 1 µM, first compound 1 µM
[17] = second compound 1 µM, first compound 3.16 µM
[18] = second compound 1 µM, first compound 10 µM
[19] = second compound 3.16 µM, first compound 0.0316 µM
[20] = second compound 3.16 µM, first compound 0.1 µM
[21] = second compound 3.16 µM, first compound 0.316 µM
[22] = second compound 3.16 µM, first compound 1 µM
[23] = second compound 3.16 µM, first compound 3.16 µM
[24] = second compound 3.16 µM, first compound 10 µM
[25] = second compound 10 µM, first compound 0.0316 µM
[26] = second compound 10 µM, first compound 0.1 µM
[27] = second compound 10 µM, first compound 0.316 µM
[28] = second compound 10 µM, first compound 1 µM
[29] = second compound 10 µM, first compound 3.16 µM
[30] = second compound 10 µM, first compound 10 µM
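Note: spheroids exposed to compounds for seven days before the viability read.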
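Throughout, for viability, T/C: luminescent signal used as a stand-in for viable cell amount; 100% = DMSO vehicle control wells.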

SMILES | IC50 (second compound 0.1 µM) | IC50 (second compound 0.316 µM) | IC50 (second compound 1 µM) | IC50 (second compound 3.16 µM) | IC50 (second compound 10 µM) | viability, T/C [1] | viability, T/C [2] | viability, T/C [3] | viability, T/C [4] | viability, T/C [5] | viability, T/C [6] | viability, T/C [7] | viability, T/C [8] | viability, T/C [9] | viability, T/C [10] | viability, T/C [11] | viability, T/C [12] | viability, T/C [13] | viability, T/C [14] | viability, T/C [15] | further results
Nc1ccn(C2OC(CO)C(O)C2(F)F)c(=O)n1 (stereo not given) + Cc1ccccc1N=Nc1ccc(NC(=O)c2ccnn2C)c(C)c1 | < 0.0316 µM | < 0.0316 µM | < 0.0316 µM | < 0.0316 µM | < 0.0316 µM | 16.6% | 15.3% | 14.9% | 16.3% | 18.7% | 17.1% | 14.9% | 14.5% | 16.5% | 18% | 17.4% | 17.4% | 16% | 16% | 16.4% | viability, T/C [16]: 17%; viability, T/C [17]: 18.3%; viability, T/C [18]: 19.4%; viability, T/C [19]: 14.6%; viability, T/C [20]: 13%; viability, T/C [21]: 15.7%; viability, T/C [22]: 15.3%; viability, T/C [23]: 17.1%; viability, T/C [24]: 17.1%; viability, T/C [25]: 16%; viability, T/C [26]: 15.9%; viability, T/C [27]: 16.6%; viability, T/C [28]: 17.8%; viability, T/C [29]: 18%; viability, T/C [30]: 18.8%
O=C(c1cc(Cc2n[nH]c(=O)c3ccccc23)ccc1F)N1CCN(C(=O)C2CC2)CC1 + Cc1cncc(-c2nc(NCCc3c[nH]c4ccccc34)c3ncn(C(C)C)c3n2)c1 | > 10 µM | > 10 µM | > 10 µM | > 10 µM | < 0.0316 µM | 107% | 110% | 88.1% | 110% | 123% | 123% | 108% | 103% | 96.5% | 110% | 125% | 130% | 97.6% | 96.5% | 100% | viability, T/C [16]: 115%; viability, T/C [17]: 125%; viability, T/C [18]: 134%; viability, T/C [19]: 115%; viability, T/C [20]: 110%; viability, T/C [21]: 115%; viability, T/C [22]: 116%; viability, T/C [23]: 146%; viability, T/C [24]: 130%; viability, T/C [25]: 48.2%; viability, T/C [26]: 44.3%; viability, T/C [27]: 38.8%; viability, T/C [28]: 41.5%; viability, T/C [29]: 28.5%; viability, T/C [30]: 21.5%

— PubChem BioAssay AID1918991 (Molecular Pharmacology Branch, DTP, NCI, 2023)
